Test results published in ChEMBL document CHEMBL1137005 (Bioorg Med Chem Lett, 2009).
The source made the active and inactive calls. The rule behind the calls is not given here.

How the values were obtained:
[1] = biological target: Voltage-dependent L-type calcium channel subunit alpha-1C (Homo sapiens, UniProt Q13936); assay: Activity at Cav 1.2 channel
Cytochrome P450 2D6 = Cytochrome P450 2D6 (Homo sapiens, UniProt P10635); assay: Inhibition of CYP2D6; assay type: ADME
[2] = biological target: T1, Bifunctional epoxide hydrolase 2 (Homo sapiens, UniProt P34913); assay: Inhibition of human soluble epoxide hydrolase
T1 sequence (P34913 whole entry): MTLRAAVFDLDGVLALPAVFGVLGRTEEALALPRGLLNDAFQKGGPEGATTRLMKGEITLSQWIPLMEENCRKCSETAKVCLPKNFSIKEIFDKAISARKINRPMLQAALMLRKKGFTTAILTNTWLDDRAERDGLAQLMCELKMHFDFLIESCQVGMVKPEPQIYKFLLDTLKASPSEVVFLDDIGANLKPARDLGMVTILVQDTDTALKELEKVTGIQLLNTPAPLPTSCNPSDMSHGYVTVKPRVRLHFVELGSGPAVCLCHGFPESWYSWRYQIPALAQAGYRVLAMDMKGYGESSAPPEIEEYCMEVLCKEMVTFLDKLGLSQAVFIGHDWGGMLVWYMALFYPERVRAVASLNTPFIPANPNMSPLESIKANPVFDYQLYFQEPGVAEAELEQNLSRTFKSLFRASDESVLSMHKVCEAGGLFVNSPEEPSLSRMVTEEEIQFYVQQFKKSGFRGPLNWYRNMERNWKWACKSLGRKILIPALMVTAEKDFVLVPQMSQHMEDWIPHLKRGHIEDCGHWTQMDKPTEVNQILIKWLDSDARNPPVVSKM

Cytochrome P450 3A4 = Cytochrome P450 3A4 (Homo sapiens, UniProt P08684); assay: Inhibition of CYP3A4; assay type: ADME
Cytochrome P450 3A4, sequence (P08684 whole entry): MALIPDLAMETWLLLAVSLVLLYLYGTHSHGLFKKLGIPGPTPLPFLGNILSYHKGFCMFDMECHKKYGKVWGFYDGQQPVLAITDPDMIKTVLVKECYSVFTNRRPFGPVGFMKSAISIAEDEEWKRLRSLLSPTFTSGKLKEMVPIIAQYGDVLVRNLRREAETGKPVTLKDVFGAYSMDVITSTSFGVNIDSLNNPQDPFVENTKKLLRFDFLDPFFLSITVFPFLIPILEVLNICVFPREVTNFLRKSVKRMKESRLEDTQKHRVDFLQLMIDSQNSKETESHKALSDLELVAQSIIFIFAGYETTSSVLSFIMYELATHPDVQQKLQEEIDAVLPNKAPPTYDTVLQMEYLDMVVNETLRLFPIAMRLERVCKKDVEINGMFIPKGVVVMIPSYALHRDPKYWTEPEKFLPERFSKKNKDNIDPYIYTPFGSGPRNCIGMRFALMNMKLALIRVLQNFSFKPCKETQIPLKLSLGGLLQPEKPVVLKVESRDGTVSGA

[3] = biological target: T2, Bifunctional epoxide hydrolase 2 (Rattus norvegicus, UniProt P80299); assay: Inhibition of rat soluble epoxide hydrolase
T2 sequence (P80299 whole entry): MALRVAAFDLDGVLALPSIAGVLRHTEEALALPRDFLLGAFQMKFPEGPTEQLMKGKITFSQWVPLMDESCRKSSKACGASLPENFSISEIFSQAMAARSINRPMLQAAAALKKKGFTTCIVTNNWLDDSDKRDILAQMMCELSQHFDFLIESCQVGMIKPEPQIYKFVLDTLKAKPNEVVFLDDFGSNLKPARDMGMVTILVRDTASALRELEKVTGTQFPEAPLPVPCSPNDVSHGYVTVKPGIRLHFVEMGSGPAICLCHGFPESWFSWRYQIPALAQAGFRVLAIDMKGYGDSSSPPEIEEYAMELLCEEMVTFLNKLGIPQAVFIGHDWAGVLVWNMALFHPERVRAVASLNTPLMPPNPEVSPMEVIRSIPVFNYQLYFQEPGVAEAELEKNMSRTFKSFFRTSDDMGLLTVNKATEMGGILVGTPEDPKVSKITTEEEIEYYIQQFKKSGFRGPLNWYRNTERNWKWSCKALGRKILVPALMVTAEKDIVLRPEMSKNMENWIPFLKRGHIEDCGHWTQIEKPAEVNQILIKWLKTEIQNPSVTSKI

[4] = biological target: Sodium channel protein type 5 subunit alpha (Homo sapiens, UniProt Q14524); assay: Inhibition of Voltage-gated sodium channel subunit alpha Nav1.5
Sodium channel protein type 5 subunit alpha, sequence (Q14524 whole entry): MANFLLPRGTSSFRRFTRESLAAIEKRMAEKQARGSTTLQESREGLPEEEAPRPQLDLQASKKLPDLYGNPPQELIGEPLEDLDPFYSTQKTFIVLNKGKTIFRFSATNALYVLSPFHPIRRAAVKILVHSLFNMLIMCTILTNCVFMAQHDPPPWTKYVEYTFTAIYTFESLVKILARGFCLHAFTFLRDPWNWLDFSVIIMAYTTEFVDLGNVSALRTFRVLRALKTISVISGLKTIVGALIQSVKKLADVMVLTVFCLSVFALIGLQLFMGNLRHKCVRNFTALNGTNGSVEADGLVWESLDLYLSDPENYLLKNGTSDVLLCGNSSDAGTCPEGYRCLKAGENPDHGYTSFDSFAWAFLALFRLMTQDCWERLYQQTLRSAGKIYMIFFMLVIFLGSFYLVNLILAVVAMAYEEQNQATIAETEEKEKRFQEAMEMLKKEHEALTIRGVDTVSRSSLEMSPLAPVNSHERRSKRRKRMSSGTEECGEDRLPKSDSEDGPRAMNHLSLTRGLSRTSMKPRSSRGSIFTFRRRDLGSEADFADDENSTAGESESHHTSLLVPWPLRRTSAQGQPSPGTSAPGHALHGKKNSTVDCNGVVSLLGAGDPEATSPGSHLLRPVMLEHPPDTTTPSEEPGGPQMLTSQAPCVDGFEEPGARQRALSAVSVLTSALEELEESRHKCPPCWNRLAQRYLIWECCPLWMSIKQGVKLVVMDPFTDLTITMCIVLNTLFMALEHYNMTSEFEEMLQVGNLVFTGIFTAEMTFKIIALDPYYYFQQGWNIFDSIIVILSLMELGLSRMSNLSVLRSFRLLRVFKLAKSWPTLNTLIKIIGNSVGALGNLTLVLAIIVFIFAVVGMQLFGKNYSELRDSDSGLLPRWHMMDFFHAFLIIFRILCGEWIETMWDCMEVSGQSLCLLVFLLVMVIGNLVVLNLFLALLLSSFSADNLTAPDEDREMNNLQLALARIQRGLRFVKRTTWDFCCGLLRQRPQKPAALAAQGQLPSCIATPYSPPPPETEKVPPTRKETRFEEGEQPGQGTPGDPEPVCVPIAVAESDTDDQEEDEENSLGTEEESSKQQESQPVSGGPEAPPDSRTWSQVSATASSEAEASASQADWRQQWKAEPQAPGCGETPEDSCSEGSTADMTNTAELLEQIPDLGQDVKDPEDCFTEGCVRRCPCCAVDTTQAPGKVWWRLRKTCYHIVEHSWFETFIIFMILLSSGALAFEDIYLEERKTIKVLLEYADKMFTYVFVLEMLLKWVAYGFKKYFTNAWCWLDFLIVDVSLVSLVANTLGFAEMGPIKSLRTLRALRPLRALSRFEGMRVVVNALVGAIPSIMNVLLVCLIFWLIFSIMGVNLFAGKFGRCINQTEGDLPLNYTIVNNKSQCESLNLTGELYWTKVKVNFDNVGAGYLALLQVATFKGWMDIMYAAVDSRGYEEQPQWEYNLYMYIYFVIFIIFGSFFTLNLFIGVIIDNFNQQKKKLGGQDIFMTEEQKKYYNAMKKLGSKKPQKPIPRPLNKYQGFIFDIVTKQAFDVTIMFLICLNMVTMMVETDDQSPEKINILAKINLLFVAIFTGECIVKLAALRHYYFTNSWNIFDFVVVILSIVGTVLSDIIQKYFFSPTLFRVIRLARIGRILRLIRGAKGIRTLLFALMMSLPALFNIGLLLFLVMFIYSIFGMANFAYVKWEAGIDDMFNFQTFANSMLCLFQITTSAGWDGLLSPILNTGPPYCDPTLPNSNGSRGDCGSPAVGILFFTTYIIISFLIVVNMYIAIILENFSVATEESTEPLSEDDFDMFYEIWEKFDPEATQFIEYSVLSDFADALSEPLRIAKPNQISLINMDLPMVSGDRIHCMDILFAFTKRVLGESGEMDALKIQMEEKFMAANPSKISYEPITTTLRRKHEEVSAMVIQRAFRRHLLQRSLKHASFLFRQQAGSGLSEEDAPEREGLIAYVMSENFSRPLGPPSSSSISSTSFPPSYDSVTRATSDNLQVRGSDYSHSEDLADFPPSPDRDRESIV

[5] = Inhibition of potassium channel IKr
[6] = biological target: T1, Bifunctional epoxide hydrolase 2; assay: Inhibition of human soluble epoxide hydrolase in HEK293 cells assessed as DHET production; assay type: cell-based
Epoxide hydrolase 1 = biological target: T3, Epoxide hydrolase 1 (Homo sapiens, UniProt P07099); assay: Inhibition of human microsomal epoxide hydrolase
T3 sequence (P07099 whole entry): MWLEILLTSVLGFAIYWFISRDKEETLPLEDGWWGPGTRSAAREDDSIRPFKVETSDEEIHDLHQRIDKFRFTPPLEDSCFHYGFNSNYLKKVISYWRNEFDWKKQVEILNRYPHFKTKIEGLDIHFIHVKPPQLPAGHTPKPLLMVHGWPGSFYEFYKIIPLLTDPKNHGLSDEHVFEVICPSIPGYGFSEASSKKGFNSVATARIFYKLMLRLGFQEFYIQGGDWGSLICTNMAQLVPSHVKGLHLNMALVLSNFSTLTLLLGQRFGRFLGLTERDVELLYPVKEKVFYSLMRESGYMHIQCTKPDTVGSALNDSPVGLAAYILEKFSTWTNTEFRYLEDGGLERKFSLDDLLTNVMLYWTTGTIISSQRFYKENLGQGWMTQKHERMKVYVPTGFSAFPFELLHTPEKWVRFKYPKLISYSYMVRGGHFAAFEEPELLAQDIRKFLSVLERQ

Cytochrome P450 2C9 = Cytochrome P450 2C9 (Homo sapiens, UniProt P11712); assay: Inhibition of CYP2C9; assay type: ADME
Cytochrome P450 2C9, sequence (P11712 whole entry): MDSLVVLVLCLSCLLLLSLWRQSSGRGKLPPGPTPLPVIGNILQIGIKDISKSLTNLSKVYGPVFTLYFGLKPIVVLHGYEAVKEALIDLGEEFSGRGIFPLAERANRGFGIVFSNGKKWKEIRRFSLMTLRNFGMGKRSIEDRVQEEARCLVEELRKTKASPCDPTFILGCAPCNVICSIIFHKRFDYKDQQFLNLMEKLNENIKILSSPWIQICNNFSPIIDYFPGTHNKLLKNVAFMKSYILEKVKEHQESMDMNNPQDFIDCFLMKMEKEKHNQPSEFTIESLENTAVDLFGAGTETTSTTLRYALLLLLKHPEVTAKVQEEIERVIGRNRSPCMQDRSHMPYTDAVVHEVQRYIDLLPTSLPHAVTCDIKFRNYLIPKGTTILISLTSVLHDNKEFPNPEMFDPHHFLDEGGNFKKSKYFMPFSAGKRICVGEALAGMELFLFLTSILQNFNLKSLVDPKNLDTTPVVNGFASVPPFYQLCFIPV

[7] = Half life in rat at 1 mg/kg, iv and 2 mg/kg, po; assay type: ADME, organism-based; details: in vivo
[8] = Binding affinity to […] channel diltiazem binding site
[9] = Clearance in rat at 1 mg/kg, iv and 2 mg/kg, po; assay type: ADME, organism-based; details: in vivo
[10] = Bioavailability in rat at 1 mg/kg, iv and 2 mg/kg, po; assay type: ADME, organism-based; details: in vivo
[11] = Volume of distribution at steady state in rat at 1 mg/kg, iv and 2 mg/kg, po; assay type: ADME, organism-based; details: in vivo, read-out: Vdss
Blood = assay: Inhibition of DHET production in rat whole blood at 1 uM after 1 hr; assay type: functional; parameters: Activity: scale not given: the % may be the effect or the level left
Rattus norvegicus [12] = assay: Antihypertensive activity in spontaneously hypertensive rat assessed as change in heart rate at 300 mg/kg, po; assay type: functional, organism-based; parameters: dose 300 mg/kg
Rattus norvegicus [13] = assay: Antihypertensive activity in spontaneously hypertensive rat assessed as change in diastolic blood pressure at 300 mg/kg, po; assay type: functional, organism-based; parameters: dose 300 mg/kg; details: Artery
Rattus norvegicus [14] = assay: Antihypertensive activity in spontaneously hypertensive rat assessed as change in systolic blood pressure at 300 mg/kg, po; assay type: functional, organism-based; parameters: dose 300 mg/kg; details: Artery
Rattus norvegicus [15] = assay: Antihypertensive activity in spontaneously hypertensive rat assessed as change in pulse pressure at 300 mg/kg, po; assay type: functional, organism-based; parameters: dose 300 mg/kg
Rattus norvegicus [16] = assay: Plasma concentration in spontaneously hypertensive rat plasma at 50 mg/kg, po; assay type: ADME, organism-based; parameters: dose 50 mg/kg, route oral; details: in vivo
Rattus norvegicus [17] = assay: Ex vivo inhibition of DHET production in spontaneously hypertensive rat plasma at 50 mg/kg, po after 0.5 to 6 hrs; assay type: functional
[18] = Plasma concentration in spontaneously hypertensive rat plasma at 300 mg/kg, after 24 hrs; assay type: ADME, organism-based; parameters: dose 300 mg/kg
[19] = Plasma concentration in spontaneously hypertensive rat plasma at 300 mg/kg, after 2 hrs; assay type: ADME, organism-based; parameters: dose 300 mg/kg
[20] = Plasma concentration in spontaneously hypertensive rat plasma at 300 mg/kg, after 5 hrs; assay type: ADME, organism-based; parameters: dose 300 mg/kg

Cytochrome P450 2D6, sequence (P10635 whole entry): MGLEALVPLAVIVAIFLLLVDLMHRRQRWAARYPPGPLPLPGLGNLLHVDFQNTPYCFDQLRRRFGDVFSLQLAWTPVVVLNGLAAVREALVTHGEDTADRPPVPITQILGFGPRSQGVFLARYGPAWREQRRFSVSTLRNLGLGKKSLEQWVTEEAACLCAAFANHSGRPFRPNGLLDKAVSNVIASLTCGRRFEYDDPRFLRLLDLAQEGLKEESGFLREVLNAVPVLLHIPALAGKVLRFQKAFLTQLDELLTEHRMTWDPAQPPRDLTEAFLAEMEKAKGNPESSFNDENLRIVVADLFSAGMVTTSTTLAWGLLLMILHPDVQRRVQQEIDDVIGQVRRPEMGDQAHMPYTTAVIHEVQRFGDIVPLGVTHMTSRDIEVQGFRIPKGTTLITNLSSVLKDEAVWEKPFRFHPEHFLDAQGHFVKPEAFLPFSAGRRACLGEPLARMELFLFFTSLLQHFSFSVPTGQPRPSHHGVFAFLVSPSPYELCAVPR

Row | SMILES | IC50 (Cytochrome P450 2D6) [µM] | IC50 [2] [µM] | IC50 (Cytochrome P450 3A4) [µM] | IC50 [3] [µM] | IC50 [6] [µM] | IC50 (Epoxide hydrolase 1) [µM] | IC50 (Cytochrome P450 2C9) [µM] | half-life [7] [h] | IC50 [8] [µM] | clearance [9] [mL/min/kg] | bioavailability [10] [%] | Vd [11] [L/kg] | IC50 [1] [µM] | IC50 [4] [µM] | IC50 [5] [µM] | Activity (Blood) [%] | also measured
1 | O=C(N[C@H]1C[C@@H]1c1ccccc1)N1CCC2(CCc3ncccc3O2)CC1 (relative stereo) | > 10 | 0.005 | > 10 | 0.021 | < 0.001 | > 100 | > 10 | – | – | – | – | – | 20 | > 10 | > 30 | 9.2 | –
2 | Cn1nccc1-c1ccc2c(c1)C(=O)CC1(CCN(C(=O)N[C@H]3C[C@@H]3c3ccccc3)CC1)O2 (racemic) | > 10 | 0.004 | > 10 | 0.021 | < 0.001 | 15 | > 10 | – | – | – | – | – | 28 | > 10 | 4 | – | –
3 | CS(=O)(=O)c1ccc2c(c1)CCC1(CCCN(C(=O)N[C@H]3C[C@@H]3c3ccccc3)CC1)O2 (relative stereo) | > 10 | 0.011 | > 10 | 0.049 | 0.003 | 55 | > 10 | – | – | – | – | – | > 30 | > 10 | 2 | – | –
4 | O=C1CC2(CCN(C(=O)N[C@H]3C[C@@H]3c3ccccc3)CC2)Oc2ccccc21 (racemic) [listing 1 of 2 here] | – | – | – | – | – | – | – | – | – | – | – | – | – | – | – | – | Activity (Rattus norvegicus [12]): inactive; Activity (Rattus norvegicus [13]): inactive; Activity (Rattus norvegicus [14]): inactive; Activity (Rattus norvegicus [15]): inactive
5 | O=C1CC2(CCN(C(=O)N[C@H]3C[C@@H]3c3ccccc3)CC2)Oc2ccccc21 (racemic) [listing 2 of 2 here] | – | – | – | – | – | – | – | 1.5 | – | 47 | 61 | 3.1 | – | – | – | 8.6 | concentration (Rattus norvegicus [16]): 800 nM; inhibition in vivo at 50 mg/kg (Rattus norvegicus [17]): > 95%; concentration at 24 h [18]: 1700 nM; concentration at 2 h [19]: 3600 nM; concentration at 5 h [20]: 2700 nM
6 | O=C1CC2(CCN(C(=O)N[C@H]3C[C@@H]3c3ccccc3)CC2)Oc2cccnc21 (relative stereo) | > 10 | 0.008 | > 10 | 0.02 | 0.004 | > 100 | – | – | – | – | – | – | > 30 | > 10 | > 30 | 12 | –
7 | CS(=O)(=O)c1ccc2c(c1)CCC1(CCN(C(=O)N[C@H]3C[C@@H]3c3ccccc3)CC1)O2.Cl (racemic) | – | – | – | – | – | – | – | 3.9 | – | 0.7 | 86 | 0.23 | – | – | – | – | inhibition at 1 µM (Blood; Rattus norvegicus, Blood, 1 h): 32%
8 | O=C(N[C@H]1C[C@@H]1c1ccccc1)N1CCC2(CC1)CC(O)c1ncccc1O2 (relative stereo) | > 10 | 0.008 | > 10 | 0.031 | 0.008 | > 100 | > 10 | – | > 30 | – | – | – | – | > 10 | > 30 | 7.3 | –

Second part, led by results:

Row | IC50 (Cytochrome P450 2D6) [µM] | IC50 [2] [µM] | IC50 (Cytochrome P450 3A4) [µM] | IC50 [3] [µM] | IC50 [6] [µM] | IC50 (Epoxide hydrolase 1) [µM] | IC50 (Cytochrome P450 2C9) [µM] | half-life [7] [h] | IC50 [8] [µM] | clearance [9] [mL/min/kg] | bioavailability [10] [%] | Vd [11] [L/kg] | SMILES | IC50 [1] [µM] | IC50 [4] [µM] | IC50 [5] [µM] | Activity (Blood) [%] | also measured
9 | > 10 | 0.003 | > 10 | 0.013 | < 0.001 | > 100 | 10 | – | – | – | – | – | Cn1nccc1Nc1ccc2c(c1)C(=O)CC1(CCN(C(=O)N[C@H]3C[C@@H]3c3ccccc3)CC1)O2 (racemic) | 26 | > 10 | 2 | – | –
10 | > 10 | 0.004 | > 10 | 0.012 | – | – | > 10 | 2.6 | > 26 | 1 | 49 | 0.2 | CS(=O)(=O)c1ccc2c(c1)C(=O)CC1(CCN(C(=O)N[C@H]3C[C@@H]3c3ccccc3)CC1)O2 (racemic) | – | > 10 | 4 | – | –
11 | > 10 | 0.002 | > 10 | 0.019 | < 0.001 | > 100 | 7.6 | 18 | > 30 | 0.9 | 61 | 1.6 | CS(=O)(=O)c1ccc2c(c1)CCC1(CCN(C(=O)c3ccc(C(F)(F)F)cc3)CC1)O2 | – | > 10 | 25 | 66 | –
12 | – | – | – | 0.004 | – | – | – | 2.6 | > 30 | 0.7 | 67 | 0.15 | CS(=O)(=O)c1ccc2c(c1)CCC1(CCN(C(=O)Cc3ccc(Cl)cc3Cl)CC1)O2 | – | – | 0.8 | – | –
